Data reported in publication PMC11124387, “A Reliable Multifaceted Solution against Foodborne Viral Infections: The Case of RiLK1 Decapeptide” (Molecules, 2024).

Type: physicochemical
Experimental: Circular Dichroism (CD) analysis was performed by a Jasco J-810 spectropolarimeter. The samples were loaded into a quartz cuvette of 0.1 cm path length (Hellma Analytics), and the spectra were recorded in the 195–250 nm range at a scan speed of 20 nm/min, averaging 5 scans. CD experiments were carried out in 10 mM Tris-HCl buffer, pH 7.0, as a function of SDS concentrations (3, 50, and 150 mM) at a peptide concentration of 50 µM. The folding kinetic measurements of the peptides were performed after the addition of SDS (50 mM) to each sample (50 µM in 10 mM Tris-HCl, pH 7.0) up to 24 h of incubation. For thermal stability analyses, the peptides were prepared to a final concentration of 50 μM in 10 mM Tris-HCl, pH 7.0, and then they were incubated at 4 and 25 °C up to 48 h before acquiring the CD spectra in the presence of 50 mM SDS. A blank spectrum of a sample containing all components except the peptide was acquired for the baseline correction of the CD spectra of the peptide. The mean residue ellipticity ([θ], deg cm^2 dmol^−1) was obtained by the equation [θ] = 100 θ/cnl, where θ is the ellipticity (mdeg), c is the peptide concentration (mM), n is the number of residues, and l is the path length (cm).
Tryptophan (Trp) fluorescence emission spectra were recorded at 25 °C on a Shimadzu RF-6000 spectrofluorometer (Kyoto, Japan), with both excitation and emission slit widths set at 5 nm. The intrinsic Trp was excited at a wavelength of 280 nm and the emission was monitored between 300 and 400 nm. Fluorescence measurements were carried out in 10 mM Tris-HCl buffer, pH 7.0, as a function of SDS concentrations (3, 50, and 150 mM) at a peptide concentration of 50 µM. The folding kinetic experiments of AVP2 and RiLK30 were performed after the addition of SDS (50 mM) to each sample (50 µM concentration in 10 mM Tris-HCl buffer, pH 7.0) up to 24 h of incubation. The effect of temperature on peptide folding was analyzed by dissolving the peptides at a final concentration of 50 µM in 10 mM Tris-HCl buffer, pH 7.0, and incubating them at 4 and 25 °C up to 48 h. The spectra were recorded in the presence of 50 mM SDS.

For “KLRWVKIWKK-NH2 [RiLK30, newly designed RiLK1 derivative, Arg residues exchanged with Lys and Lys3 with Arg]”, the “thermal (conformational) stability in SDS micellar solution” value (pH 7) was “at least 48 h”, the “conformational rearrangement over time (CD and fluorescence spectra)” value (peptide 50 µM, 10 mM Tris-HCl pH 7.0, SDS 50 mM, 24 h incubation at 37 °C (legend: 25 °C)) was “did not appear to undergo significant changes” and the “self-aggregation (CD in SDS)” value (peptide 50 µM, 10 mM Tris-HCl pH 7.0, SDS 3, 50, 150 mM, 25 °C) was “high propensity to self-aggregate”.
